Test results taken from patent EP0413299A1, “Antibiotic composition” (MERCIAN CORPORATION, priority 1989, dated 1991).
Read-outs that look alike come from different tables or passages of the source.

Experiments:
X-ray diffraction = type: physicochemical; conditions: before storage
Protocol: The X-ray diffractions of the above-obtained samples were measured by using a JDX-8030 X-ray diffraction apparatus (JEOL LTD.) through a Ni-filter with a CuKα x-ray (40KV, 20mA) at a scanning speed of 1.2° /min. (Fig. 1).

[1] = type: physicochemical; conditions: pH 4
Protocol: Solubility of the samples was determined by using a […] dissolution apparatus (Toyama Sangyo Co., LTD.) and 200 ml of buffer (adjusted at pH 4.0, prepared by mixing JP dissolution test solution 1 and JP dissolution test solution II) at 37 ± 0.5°C with stirring at 100 rpm paddle rotation. 250 mg (potency equivalent) of sample was added to the test solution, and the solubility of the sample was determined by high performance liquid chromatography under time course investigation. […] However, the solubility decreased immediately after about 5 minutes because of crystallization of the antibiotic. […] After storage for one month at 60°C , the solubility of the granules of Reference 3 was no more than 240μg/ml after five minutes, and became the same as that of the crystalline powders after 60 minutes.

[2] = acidic aqueous solution

4˝-O-(Para-methoxyphenylacetyl)tylosin
X-ray diffraction peaks (X-ray diffraction): High X-ray diffraction peaks were observed | solubility [1]: no more than about a few micrograms per ml | solubility ([2]; pH 2): 1200 µg/mL | solubility ([2]; pH 4): 10 µg/mL | solubility ([2]; pH 5): 2 µg/mL | solubility ([2]; pH 6.8): 0.5 µg/mL
